Reference: patent publication US8450313B2, “2,3-diaryl- or heteroaryl-substituted 1,1,1-trifluoro-2-hydroxypropyl compounds” (Hoffmann-La Roche Inc., priority 2009, dated 2013)

biological target: T1, full length human recombinant glucocorticoid receptor (Homo sapiens, UniProt P04150); assay: Glucocorticoid Receptor Binding Assay (Glucocorticoid Receptor Competitor Assay far red kit, fluorescence polarization); settings: competition with fluorescent GR ligand Fluormone GS Far Red, 3 hours at 22° C., pH 7.4; Ki calculated from IC50 by Cheng-Prusoff
T1 construct: It contains some partially purified full length human recombinant glucocorticoid receptor; purchased Panvera/Invitrogen PV4302
T1 sequence (P04150 1-777): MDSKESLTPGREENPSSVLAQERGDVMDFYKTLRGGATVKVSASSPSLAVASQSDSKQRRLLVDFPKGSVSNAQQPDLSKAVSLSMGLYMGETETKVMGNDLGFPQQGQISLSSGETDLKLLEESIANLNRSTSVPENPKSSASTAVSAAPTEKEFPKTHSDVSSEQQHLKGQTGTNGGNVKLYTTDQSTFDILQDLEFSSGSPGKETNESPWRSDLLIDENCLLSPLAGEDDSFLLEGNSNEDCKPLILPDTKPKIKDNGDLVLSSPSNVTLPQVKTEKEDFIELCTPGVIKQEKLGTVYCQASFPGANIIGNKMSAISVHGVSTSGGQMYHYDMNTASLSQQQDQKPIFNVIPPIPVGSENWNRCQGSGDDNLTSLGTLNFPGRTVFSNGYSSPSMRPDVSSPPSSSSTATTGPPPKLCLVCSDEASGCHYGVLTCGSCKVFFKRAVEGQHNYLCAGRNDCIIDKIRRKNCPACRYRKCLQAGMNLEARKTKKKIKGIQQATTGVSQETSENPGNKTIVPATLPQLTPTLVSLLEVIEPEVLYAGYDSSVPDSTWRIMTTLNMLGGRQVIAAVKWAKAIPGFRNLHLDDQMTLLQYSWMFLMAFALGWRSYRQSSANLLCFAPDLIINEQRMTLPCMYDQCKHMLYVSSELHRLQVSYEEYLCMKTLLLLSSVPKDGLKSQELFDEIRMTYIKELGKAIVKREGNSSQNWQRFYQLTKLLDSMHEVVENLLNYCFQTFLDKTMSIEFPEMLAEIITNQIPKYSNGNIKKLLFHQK
In short: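 Compounds in serial dilution (from intermediate 4.2% DMSO stock) displace Fluormone GS Far Red from full-length human recombinant GR with stabilizing peptide, pH 7.4, incubated 3 hours at 22° C dark. Polarized fluorescence (610–660 nm) gives IC50 via sigmoidal fit, converted to Ki by Cheng-Prusoff.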

Ki | Structure (SMILES)
36 nM | C[C@H](c1ccc(Oc2nc(C(F)(F)F)ccc2C(=O)O)cc1Cl)[C@@](O)(c1ccc2c(c1)n(C)c(=O)n2C)C(F)(F)F (stereo in doubt) [Example 111, 2-{3-Chloro-4-[2-(1,3-dimethyl-2-oxo-2,3-dihydro-1H-benzoimidazol-5-yl)-3,3,3-trifluoro-2-hydroxy-1-methyl-propyl]-phenoxy}-6-trifluoromethyl-nicotinic acid]
26.4 nM | C[C@H](c1ccc(Oc2ccc(C(F)(F)F)c(C(=O)O)n2)cc1Cl)[C@@](O)(c1ccc2c(c1)n(C)c(=O)n2C)C(F)(F)F (stereo in doubt) [Example 112, 6-{3-Chloro-4-[2-(1,3-dimethyl-2-oxo-2,3-dihydro-1H-benzoimidazol-5-yl)-3,3,3-trifluoro-2-hydroxy-1-methyl-propyl]-phenoxy}-3-trifluoromethyl-pyridine-2-carboxylic acid]
6.2 nM | C[C@H](c1ccc(Oc2c(C(=O)O)ccnc2Cl)cc1Cl)[C@@](O)(c1ccc2c(c1)n(C)c(=O)n2C)C(F)(F)F (stereo in doubt) [Example 113, 2-Chloro-3-{3-chloro-4-[2-(1,3-dimethyl-2-oxo-2,3-dihydro-1H-benzoimidazol-5-yl)-3,3,3-trifluoro-2-hydroxy-1-methyl-propyl]-phenoxy}-isonicotinic acid]
1.1 nM | C[C@@H](c1ccc(Oc2ccc(C(=O)O)c(C(F)(F)F)n2)cc1Cl)[C@](O)(c1ccc2c(c1)n(C)c(=O)n2C)C(F)(F)F (stereo in doubt) [Example 115, 6-{3-Chloro-4-[2-(1,3-dimethyl-2-oxo-2,3-dihydro-1H-benzoimidazol-5-yl)-3,3,3-trifluoro-2-hydroxy-1-methyl-propyl]-phenoxy}-2-trifluoromethyl-nicotinic acid]
0.7 nM | COC(=O)c1ccc(-c2ccc([C@@H](C)[C@@](O)(c3ccc4oc(=O)n(C)c4c3)C(F)(F)F)c(Cl)c2)nc1 (stereo in doubt) [Example 127, 6-{3-Chloro-4-[3,3,3-trifluoro-2-hydroxy-1-methyl-2-(3-methyl-2-oxo-2,3-dihydro-benzooxazol-5-yl)-propyl]-phenyl}-nicotinic acid methyl ester]
0.5 nM | C[C@H](c1ccc(-c2ccc(OCC(=O)O)cc2)cc1Cl)[C@@](O)(c1ccc2oc(=O)n(C)c2c1)C(F)(F)F (stereo in doubt) [Example 130, {3′-Chloro-4′-[3,3,3-trifluoro-2-hydroxy-1-methyl-2-(3-methyl-2-oxo-2,3-dihydro-benzooxazol-5-yl)-propyl]-biphenyl-4-yloxy}-acetic acid]
3 nM | COc1cc(-c2ccc([C@@H](C)[C@@](O)(c3ccc4oc(=O)n(C)c4c3)C(F)(F)F)c(Cl)c2)ccc1C(=O)O (stereo in doubt) [Example 132, 3′-Chloro-3-methoxy-4′-[3,3,3-trifluoro-2-hydroxy-1-methyl-2-(3-methyl-2-oxo-2,3-dihydro-benzooxazol-5-yl)-propyl]-biphenyl-4-carboxylic acid]
20 nM | C[C@@H](c1ccc(-c2ccc(C(=O)O)c(F)c2)cc1Cl)[C@](O)(c1cc2c(cc1F)OCC(=O)N2C)C(F)(F)F (stereo in doubt) [Example 137, 3′-Chloro-3-fluoro-4′-[3,3,3-trifluoro-2-(7-fluoro-4-methyl-3-oxo-3,4-dihydro-2H-benzo[1,4]oxazin-6-yl)-2-hydroxy-1-methyl-propyl]-biphenyl-4-carboxylic acid]
2.7 nM | C[C@@H](c1ccc(Oc2ccc(C(=O)O)c(Cl)c2)cc1Cl)[C@](O)(c1cc2c(cc1F)OCC(=O)N2C)C(F)(F)F (stereo in doubt) [Example 139, 2-Chloro-4-{3-chloro-4-[3,3,3-trifluoro-2-(7-fluoro-4-methyl-3-oxo-3,4-dihydro-2H-benzo[1,4]oxazin-6-yl)-2-hydroxy-1-methyl-propyl]-phenoxy}-benzoic acid]
18.5 nM | C[C@H](c1ccc(-c2ccc(F)c(C(=O)O)c2)cc1Cl)[C@@](O)(c1ccc(C#N)cc1)C(F)(F)F (stereo in doubt) [Example 151, 3′-Chloro-4′-[2-(4-cyano-phenyl)-3,3,3-trifluoro-2-hydroxy-1-methyl-propyl]-4-fluoro-biphenyl-3-carboxylic acid]
33.7 nM | C[C@H](c1ccc(-c2ccc(F)c(C(=O)O)c2)cc1Cl)[C@@](O)(c1cccc(C#N)c1)C(F)(F)F (stereo in doubt) [Example 154, 3′-Chloro-4′-[2-(3-cyano-phenyl)-3,3,3-trifluoro-2-hydroxy-1-methyl-propyl]-4-fluoro-biphenyl-3-carboxylic acid]
19.8 nM | C[C@H](c1ccc(Oc2ccc(C(=O)O)cn2)cc1Cl)[C@@](O)(c1ccc(C#N)cc1)C(F)(F)F (stereo in doubt) [Example 157, 6-{3-Chloro-4-[2-(4-cyano-phenyl)-3,3,3-trifluoro-2-hydroxy-1-methyl-propyl]-phenoxy}-nicotinic acid]
7.5 nM | C[C@H](c1ccc(-c2ccc(C(=O)O)c(F)c2)cc1Cl)[C@@](O)(c1ccc2c(c1)OCC(=O)N2C)C(F)(F)F (stereo in doubt) [Example 164, 3′-Chloro-3-fluoro-4′-[3,3,3-trifluoro-2-hydroxy-1-methyl-2-(4-methyl-3-oxo-3,4-dihydro-2H-benzo[1,4]oxazin-7-yl)-propyl]-biphenyl-4-carboxylic acid]

Further lines, the molecule ahead of its results:

Structure (SMILES) | Ki
C[C@H](c1ccc(Oc2ccc(C(=O)O)c(Cl)c2)cc1Cl)[C@@](O)(c1ccc2[nH]c(=O)cc(C(F)(F)F)c2c1)C(F)(F)F (stereo in doubt) [Example 140, 2-Chloro-4-{3-chloro-4-[3,3,3-trifluoro-2-hydroxy-1-methyl-2-(2-oxo-4-trifluoromethyl-1,2-dihydro-quinolin-6-yl)-propyl]-phenoxy}-benzoic acid] | 22 nM
Cc1cc([C@@](O)([C@@H](C)c2ccc(Oc3ccc(C(=O)O)c(F)c3)cc2Cl)C(F)(F)F)cc(C)c1C#N (stereo in doubt) [Example 142, 4-{3-Chloro-4-[2-(4-cyano-3,5-dimethyl-phenyl)-3,3,3-trifluoro-2-hydroxy-1-methyl-propyl]-phenoxy}-2-fluoro-benzoic acid] | 2.1 nM
COC(=O)c1ccc(Oc2ccc([C@H](C)[C@](O)(c3cc(C)c(C#N)c(C)c3)C(F)(F)F)c(Cl)c2)cc1Cl (stereo in doubt) [Example 143, 2-Chloro-4-{3-chloro-4-[2-(4-cyano-3,5-dimethyl-phenyl)-3,3,3-trifluoro-2-hydroxy-1-methyl-propyl]-phenoxy}-benzoic acid methyl ester] | 1.7 nM
COC(=O)c1cnc(Oc2ccc([C@H](C)[C@](O)(c3cc(C)c(C#N)c(C)c3)C(F)(F)F)c(Cl)c2)cc1C(F)(F)F (stereo in doubt) [Example 145, 6-{3-Chloro-4-[2-(4-cyano-3,5-dimethyl-phenyl)-3,3,3-trifluoro-2-hydroxy-1-methyl-propyl]phenoxy}-4-trifluoromethyl-nicotinic acid methyl ester] | 3.1 nM
Cc1cc([C@@](O)([C@@H](C)c2ccc(Oc3cc(C(F)(F)F)c(C(=O)O)cn3)cc2Cl)C(F)(F)F)cc(C)c1C#N (stereo in doubt) [Example 146, 6-{3-Chloro-4-[2-(4-cyano-3,5-dimethyl-phenyl)-3,3,3-trifluoro-2-hydroxy-1-methyl-propyl]-phenoxy}-4-trifluoromethyl-nicotinic acid] | 1.4 nM
COC(=O)c1ccc(Oc2ccc([C@H](C)[C@](O)(c3cc(C)c(C#N)c(C)c3)C(F)(F)F)c(Cl)c2)nc1 (stereo in doubt) [Example 147, 6-{3-Chloro-4-[2-(4-cyano-3,5-dimethyl-phenyl)-3,3,3-trifluoro-2-hydroxy-1-methyl-propyl]-phenoxy}-nicotinic acid methyl ester] | 2.8 nM
Cc1cc([C@@](O)([C@@H](C)c2ccc(Oc3ccc(C(=O)O)cn3)cc2Cl)C(F)(F)F)cc(C)c1C#N (stereo in doubt) [Example 148, 6-{3-Chloro-4-[2-(4-cyano-3,5-dimethyl-phenyl)-3,3,3-trifluoro-2-hydroxy-1-methyl-propyl]-phenoxy}-nicotinic acid] | 1.6 nM
COC(=O)c1cnc(Oc2ccc([C@H](C)[C@](O)(c3cc(C)c(C#N)c(C)c3)C(F)(F)F)c(Cl)c2)c(Cl)c1 (stereo in doubt) [Example 149, 5-Chloro-6-{3-chloro-4-[2-(4-cyano-3,5-dimethyl-phenyl)-3,3,3-trifluoro-2-hydroxy-1-methyl-propyl]-phenoxy}-nicotinic acid methyl ester] | 1.7 nM
Cc1cc([C@@](O)([C@@H](C)c2ccc(Oc3ncc(C(=O)O)cc3Cl)cc2Cl)C(F)(F)F)cc(C)c1C#N (stereo in doubt) [Example 150, 5-Chloro-6-{3-chloro-4-[2-(4-cyano-3,5-dimethyl-phenyl)-3,3,3-trifluoro-2-hydroxy-1-methyl-propyl]-phenoxy}-nicotinic acid] | 1.3 nM
